Assay results published in patent publication US8399489B2, “Antibacterial piperdine derivatives” (Astrazeneca AB, priority 2005, dated 2013).
In brackets after ≈: the same amount, converted by molar mass.

Assays:
Format in all cases: cell-based
SAU516 = experiment: Bacterial susceptibility testing in liquid media (MIC), SAU516; conditions: strain SAU516; lowest concentration reducing growth by 80% or more; 37 degrees C., 24 hrs
Method: (§1) Compounds were tested for antimicrobial activity by susceptibility testing in liquid media. Compounds were dissolved in dimethylsulfoxide and tested in 10 doubling dilutions in the susceptibility assays. The organisms used in the assay were grown overnight on suitable agar media and then suspended in a liquid medium appropriate for the growth of the organism. The suspension was a 0.5 McFarland and a further 1 in 10 dilution was made into the same liquid medium to prepare the final organism suspension in 100 μL. Plates were incubated under appropriate conditions at 37 degrees C. for 24 hrs prior to reading. The Minimum Inhibitory Concentration was determined as the lowest drug concentration able to reduce growth by 80% or more.

HIN446 = experiment: Bacterial susceptibility testing in liquid media (MIC), HIN446; conditions: strain HIN446; lowest concentration reducing growth by 80% or more; 37 degrees C., 24 hrs
Method: as §1

SPN548 = experiment: Bacterial susceptibility testing in liquid media (MIC), SPN548; conditions: strain SPN548; lowest concentration reducing growth by 80% or more; 37 degrees C., 24 hrs
Method: as §1

EFM073 = experiment: Bacterial susceptibility testing in liquid media (MIC), EFM073; conditions: strain EFM073; lowest concentration reducing growth by 80% or more; 37 degrees C., 24 hrs
Method: as §1

MCA445 = experiment: Bacterial susceptibility testing in liquid media (MIC), MCA445; conditions: strain MCA445; lowest concentration reducing growth by 80% or more; 37 degrees C., 24 hrs
Method: as §1

Streptococcus pneumoniae = experiment: Bacterial susceptibility testing in liquid media (MIC), Streptococcus pneumoniae; conditions: lowest concentration reducing growth by 80% or more, 37 degrees C., 24 hrs, read-out: MIC against Streptococcus pneumoniae
Method: as §1

SMILES	MIC SAU516 (SAU516)	MIC HIN446 (HIN446)	MIC SPN548 (SPN548)	MIC EFM073 (EFM073)	MIC MCA445 (MCA445)	MIC (Streptococcus pneumoniae)
CO[C@@H]1CN(c2cc(C(=O)O)ncc2Cl)CC[C@@H]1NC(=O)c1[nH]c(C)c(Cl)c1Cl (racemic) [Example 315, Cis(±)-5-chloro-4-(4-{[(3,4-dichloro-5-methyl-1H-pyrrol-2-yl)carbonyl]amino}-3-methoxypiperidin-1-yl)pyridine-2-carboxylic acid]	4 µg/mL (≈ 8.66 µM)	2 µg/mL (≈ 4.33 µM)	0.5 µg/mL (≈ 1.08 µM)	4 µg/mL (≈ 8.66 µM)	0.13 µg/mL (≈ 0.282 µM)	
CO[C@H]1CN(c2nc3cccc(C(=O)O)c3s2)CC[C@H]1NC(=O)c1[nH]c(C)c(Cl)c1Cl [Example 294]	0.031 µg/mL (≈ 0.0641 µM)	0.031 µg/mL (≈ 0.0641 µM)	0.0039 µg/mL (≈ 0.00807 µM)	0.016 µg/mL (≈ 0.0331 µM)	0.001 µg/mL (≈ 0.00207 µM)	
CO[C@@H]1CN(c2cc(C(=O)O)nc3ccccc23)CC[C@@H]1NC(=O)c1cc(Cl)c(C)[nH]1 (racemic) [Example 60, Cis(±)4-(4-{[(4-chloro-5-methyl-1H-pyrrol-2-yl)carbonyl]amino}-3-methoxypiperidin-1-yl)quinoline-2-carboxylic acid]	2 µg/mL (≈ 4.52 µM)	4 µg/mL (≈ 9.03 µM)	2 µg/mL (≈ 4.52 µM)	8 µg/mL (≈ 18.1 µM)	0.25 µg/mL (≈ 0.564 µM)	
Cc1[nH]c(C(=O)N[C@@H]2CCN(c3cc(C(=O)O)ccn3)C[C@@H]2F)c(Cl)c1Cl [Example 345, 2-((3S,4R)-4-{[(3,4-dichloro-5-methyl-1H-pyrrol-2-yl)carbonyl]amino}-3-fluoropiperidin-1-yl)isonicotinic acid]	0.5 µg/mL (≈ 1.2 µM)	0.25 µg/mL (≈ 0.602 µM)	0.03 µg/mL (≈ 0.0722 µM)	0.13 µg/mL (≈ 0.313 µM)	0.031 µg/mL (≈ 0.0747 µM)	
CO[C@@H]1CN(c2cc(C(=O)O)nc(Cl)n2)CC[C@@H]1NC(=O)c1[nH]c(C)c(Cl)c1Cl (racemic) [Example 48, Cis(±)2-Chloro-6-(4-{[(3,4-dichloro-5-methyl-1H-pyrrol-2-yl)carbonyl]amino}-3-methoxypiperidin-1-yl)pyrimidine-4-carboxylic acid]						0.13 µg/mL (≈ 0.281 µM)
